Patent publication US20230381162A1, “TREATMENTS OF ANGIOEDEMA” (KALVISTA PHARMACEUTICALS LIMITED, priority 2020, published 2023)

Legend:
[1] = higher doses; cited from earlier work
[2] = Phase 1 single ascending dose study: plasma concentrations (PK); format: in vivo, human; settings: oral capsule, fasted, 5 mg to 600 mg
Procedure: (§1) This study was a randomized, double-blind, placebo-controlled single ascending dose (SAD) and crossover studies for food effect and capsule/tablet formulations.
Samples for pharmacokinetic (PK) and PD assessment were taken at repeated intervals over 48 hours.
Plasma samples used for PK assessment were analysed using a validated liquid chromatography tandem mass spectrometry (LC MS/MS) method.

[3] = Phase 1 single ascending dose study: safety and tolerability; format: in vivo, human; settings: phase I trial, healthy males
Source text: as §1

[4] = tested on: angioedema attacks in adult subjects with hereditary angioedema type I or II; assay: Phase 2 study Part 2: on-demand treatment of HAE attacks, efficacy; format: in vivo, human; settings: 600 mg
Procedure: This was a phase 2, two-part, two-sequence, two-period (2×2) cross-over clinical trial. Subjects with HAE type I or II were recruited through HAE treatment centres in Europe and US.
(§2) In Part 2, the subjects were randomized 1:1 to 2 treatment sequences. This part of the study was conducted away from the clinic or hospital. In Sequence 1 (study arm 1) subjects received a single dose of 600 mg of the compound to treat the first eligible HAE attack. Following resolution of this attack, subjects received a single dose of placebo to treat the second eligible HAE attack.
In Sequence 2 (study arm 2) subjects received a single dose of placebo to treat the first eligible HAE attack. Following resolution of this attack, subjects received a single dose of 600 mg of the compound to treat the second eligible HAE attack.
Laryngeal or facial attacks were not eligible for treatment. HAE attacks must have been treated within the first hour of onset and before reaching severe on the global attack severity scale. Subjects must also have been able to identify the start of a HAE attack. Upon onset of the eligible HAE attack, subjects notified the dedicated study physician or qualified designee with a description of the HAE attack. The dedicated study physician or qualified designee confirmed eligibility of the HAE attack and agreed to study drug being administered. HAE attacks required documentation, on the Subject Diary, of attack location, attack symptoms, time of onset, attack severity, and time of last substantial meal prior to dosing. Subjects took study drug, as instructed, and completed timed assessments of their HAE attack symptoms for a 48 h period as documented below in Table 3. The dedicated study physician or qualified designee contacted the subject within 24 h of the eligible HAE attack to confirm the subject's safety and wellbeing. Subjects were instructed to contact the dedicated study physician or qualified designee in case of any safety concerns. In the case of hypersensitivity, subjects contacted the dedicated study physician or qualified designee or contact the nearest emergency service. The dedicated study physician or qualified designee was available 24 h/day and 7 days/week to receive subject calls.
Time to use of conventional attack treatment was assessed. The subject diary captured the efficacy endpoints including time to use of conventional attack treatment and HAE attack severity.
Overall HAE attack severity was assessed on a 5-point Likert scale (5LS) scored as none, mild, moderate, severe and very severe.
Change in HAE attack severity was assessed using a 7-point transition question (7TQ), scored as Much better/Better/A little better/No change/A little worse/Worse/Much worse.
The type of HAE attack symptoms (abdominal pain, skin pain and skin swelling) was each assessed on a 100 mm visual analogue scale (VAS) anchored at 0 (none) and 100 (very severe).
The primary endpoint, time to use of conventional attack treatment, was analyzed using a generalization of Gehan's test proposed by Feingold and Gillespie (1996) (Crossover trials with censored data. Statistics in Medicine 1996; 15(10): 953-967) to reflect the repeat measures on each subject. Subjects were treated as censored if no worsening occurs within 12 h of study drug.
The proportion of HAE attacks that worsen by one level or more on the 5LS or that require conventional attack treatment within 12 h of study drug was analyzed using Prescott's test (1981) (The comparison of success rates in cross-over trials in the presence of an order effect. Applied Statistics 1981; 30: 9-15) to compare the treatment arms.
A similar approach to that used for the primary endpoint was followed for the analysis of the time between study drug and HAE attack worsening by one level or more on the 5LS or use of conventional attack treatment, whichever comes first within 12 h. […]

[5] = Phase 2 study: safety (adverse events); format: in vivo, human
Procedure: In Part 1, subjects received a single oral dose of 600 mg of the compound to investigate the safety, PK and PD of the compound during the intercritical period between HAE attacks.
as §2
Safety Variables: • AEs, including serious adverse events (SAEs). • Laboratory test results (clinical chemistry, hematology, coagulation, and urinalysis). • Vital signs (SBP, DBP, PR, RR, body temperature). • Physical examination findings. • ECG results. • Pregnancy test (female subjects of child-bearing potential).
AEs were coded using the Medical Dictionary for Regulatory Activities (MedDRA) dictionary (v21.0 or higher) and classified by preferred term and system organ class (SOC). Listings of treatment-emergent adverse events (TEAEs), serious TEAEs, and TEAEs causing premature discontinuation will be provided by sequence group, and further classified by TEAE severity and relationship to study drug.

[6] = Phase 1 multiple dose study in healthy adult subjects: safety, ECG; format: in vivo, human; settings: 3 x 600 mg every 8, 4 or 2 hours, total 1800 mg
Procedure: This is a phase 1, double-blind, placebo-controlled, multiple-dose, multiple-cohort study to evaluate safety and tolerability of the compound as well as of the ECG effects of the compound formulated as 100 mg Film Coated Tablets in healthy adult male and female subjects.
During the study, oral doses of 600 mg of the compound as Film Coated Tablets (six 100 mg tablets) or 6 matching placebo tablets will be administered once every 8 hours (Cohort 1) every 4 hours (Cohort 2), or every 2 hours (Cohort 3 and 4) to healthy adult male and female subjects up to a total dose of 1800 mg. In Cohorts 1, 2 and 3, 6 subjects will receive the compound as 100 mg Film Coated Tablets and 2 subjects will receive the placebo for a total of 8 subjects per cohort. In Cohort 4, 12 subjects will receive the compound as 100 mg Film Coated Tablets and 6 subjects will receive the placebo for a total of 18 subjects.
A Holter monitor will be attached to each subject in order to continuously record ECGs. The monitor will be attached 1 hour before the first dose and will remain attached until after the final blood sample collection. The electrodes for the Holter monitor will be checked by a member of the clinic staff at appropriate intervals to ensure they are attached.

Human plasma kallikrein = biological target: T1, Human plasma kallikrein (Homo sapiens, UniProt P03952); assay: Plasma kallikrein inhibitory activity in vitro (purified enzyme, fluorogenic substrate); format: biochemical
T1 construct: purchased Protogen
Procedure: Human plasma kallikrein (Protogen) was incubated at 25° C. with the fluorogenic substrate H-DPro-Phe-Arg-AFC and various concentrations of the test compound. Residual enzyme activity (initial rate of reaction) was determined by measuring the change in […] at 410 nm and the IC50 value for the test compound was determined.

purified PKa = purified PKa (Homo sapiens, UniProt P03952); assay: Rate of formation of the enzyme-inhibitor complex (Kon) with purified PKa; format: biochemical
Procedure: The rate of formation of the enzyme-inhibitor complex (Kon) was determined using purified PKa rapidly mixed with a solution containing fluorogenic substrate and a concentration range of inhibitor. The time-dependent establishment of inhibition was then used to calculate the rate of formation of the enzyme-inhibitor complex for each concentration of inhibitor. The Kon was calculated by plotting the rate of inhibition versus the inhibitor concentration. Data in Table 1 are presented in μM^−1 sec^−1.

[7] = biological target: PKa in DXS-activated plasma (Homo sapiens, UniProt P03952); assay: Catalytic activity of PKa in dextran sulfate-activated plasma (inhibitor added in vitro); format: biochemical; settings: read-out: IC50 plasma enzyme
Procedure: Catalytic activity of PKa in dextran sulfate-activated (DXS, Sigma; 10 μg/ml) plasma (1:4 diluted or undiluted, VisuCon-F control plasma, Affinity Biologicals Inc) was determined by the time-dependent hydrolysis of fluorogenic substrate.

[8] = biological target: T2, plasma kallikrein activity in pre-activated plasma (Homo sapiens, UniProt P03952); assay: Inhibition of enzyme activity of pre-activated undiluted plasma (inhibitor added after DXS); format: biochemical; settings: compound 300, 1000, 3000 nM; C1-INH 3000 nM; added 3.5 minutes post DXS (FIG. 3B)
T2 construct: from tissue
Procedure: The ability of the compound to inhibit the enzyme activity of pre-activated plasma was assessed by addition of the compound after DXS stimulation. Aliquots of plasma (20 μL) were mixed with a 2.5 μL solution containing […] fluorogenic substrate (H-DPro-Phe-Arg-AFC) and a 2.5 μL solution of dextran sulphate (DXS; 100 μg/mL) which acted as an activator of the plasma kallikrein-kinin pathway. Enzyme activity was immediately measured by monitoring the accumulation of fluorescence liberated from the substrate by substrate cleavage over 16 minutes. At 3.5 minutes post DXS addition 5 μl of inhibitors or water control are were added into each well. The compound was tested at concentrations of 300, 1000 and 3000 nM. C1-INH at a concentration of 3000 nM and vehicle controls were also included.

[9] = human, in vivo; cited from earlier work

Chain of PKa in DXS-activated plasma (P03952 391-638 limits assumed): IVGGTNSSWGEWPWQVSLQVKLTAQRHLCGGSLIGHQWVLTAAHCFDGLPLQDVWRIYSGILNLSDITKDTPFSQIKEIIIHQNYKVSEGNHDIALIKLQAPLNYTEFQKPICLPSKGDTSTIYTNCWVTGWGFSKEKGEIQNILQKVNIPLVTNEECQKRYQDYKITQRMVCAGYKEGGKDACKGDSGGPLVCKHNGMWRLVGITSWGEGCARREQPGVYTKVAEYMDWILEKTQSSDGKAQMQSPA
Chain of PKa in DXS-activated plasma (P03952 20-390 partner limits assumed): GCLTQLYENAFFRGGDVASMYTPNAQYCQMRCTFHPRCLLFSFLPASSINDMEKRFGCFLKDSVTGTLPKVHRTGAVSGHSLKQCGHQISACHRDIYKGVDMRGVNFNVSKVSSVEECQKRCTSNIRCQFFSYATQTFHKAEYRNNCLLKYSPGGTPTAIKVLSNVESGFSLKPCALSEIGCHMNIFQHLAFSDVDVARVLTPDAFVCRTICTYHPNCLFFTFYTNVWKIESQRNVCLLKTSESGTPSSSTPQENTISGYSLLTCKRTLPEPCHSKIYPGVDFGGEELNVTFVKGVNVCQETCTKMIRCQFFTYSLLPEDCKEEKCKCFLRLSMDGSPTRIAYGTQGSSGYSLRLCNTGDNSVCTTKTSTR
T2 sequence (P03952 391-638 limits assumed): as the sequence (P03952 391-638 limits assumed) above
T2 sequence (P03952 20-390 partner limits assumed): as the sequence (P03952 20-390 partner limits assumed) above
T1 sequence (P03952 391-638 limits assumed): as the sequence (P03952 391-638 limits assumed) above
T1 sequence (P03952 20-390 partner limits assumed): as the sequence (P03952 20-390 partner limits assumed) above
Chain of purified PKa (P03952 391-638 limits assumed): as the sequence (P03952 391-638 limits assumed) above
Chain of purified PKa (P03952 20-390 partner limits assumed): as the sequence (P03952 20-390 partner limits assumed) above

Q: For `N#Cc1cccc([C@@H](NCC2CC2)c2ccc(F)c(NC(=O)c3cc(C(F)(F)F)nn3-c3cccc(CN)c3)c2)c1` [berotralstat], which gastrointestinal adverse effects [1] is on record?
A: Its gastrointestinal adverse effects is “more gastrointestinal adverse effects”.

Q: With `COCc1nn(Cc2ccc(Cn3ccccc3=O)cc2)cc1C(=O)NCc1nccc(OC)c1F` [compound of Formula A, N-[(3-fluoro-4-methoxypyridin-2-yl)methyl]-3-(methoxymethyl)-1-({4-[(2-oxopyridin-1-yl)methyl]phenyl}methyl)pyrazole-4-carboxamide] as the molecule, how does the plasma exposure [2] read?
A: The plasma exposure was “rapid and dose-dependent plasma exposure”.

Q: And the serious adverse events [3]?
A: The serious adverse events was “No serious adverse events”.

Q: And the tolerability signals [3]?
A: Its tolerability signals is “no tolerability signals”.

Q: What about the “median time for attacks to be rated better or higher (7TQ)” value [4] of the same molecule?
A: The value was 5 h.

Q: What about the “median time to onset of symptom relief on PGI-C (7TQ)” value [4] of the same molecule?
A: Its value is 1.6 h.

Q: What about the “median time to symptom relief, composite VAS score” value [4] of the same molecule?
A: Its value is 6 h.

Q: And the “attacks rescued (use of rescue medication)” value ([4]; at 12 hours)?
A: Its value is 15.1%.

Q: What about the “use of rescue medication” value ([4]; at 24 hours) of the same molecule?
A: The value was 20.8%.

Q: What about the “attacks improved to none on PGI-S (5LS)” value ([4]; within 12 hours) of the same molecule?
A: Its value is 56.6%.

Q: What about the “attacks rated a little better or higher (7TQ)” value ([4]; within 12 hours) of the same molecule?
A: Its value is 83.0%.

Q: What about the “attacks rated better or higher (7TQ)” value ([4]; within 12 hours) of the same molecule?
A: The value was 58.7%.

Q: What about the “attacks that do not worsen” value ([4]; within 12 hours) of the same molecule?
A: The value was 79.2%.

Q: And the “attacks improved to none on PGI-S (5LS)” value ([4]; within 24 hours)?
A: Its value is 66.0%.

Q: What about the “attacks rated a little better or higher (7TQ)” value ([4]; within 24 hours) of the same molecule?
A: Its value is 84.9%.

Q: What about the “attacks rated better or higher (7TQ)” value ([4]; within 24 hours) of the same molecule?
A: The value was 67.9%.

Q: What about the “attacks that do not worsen (5LS)” value ([4]; within 24 hours) of the same molecule?
A: The value was 69.8%.

Q: What about the “on-treatment drug-related TEAEs, number of events” value ([5]; Part 1, open-label, 600 mg) of the same molecule?
A: The value was 8.

Q: What about the “patients with on-treatment drug-related TEAEs” value ([5]; Part 1, open-label, 600 mg) of the same molecule?
A: The value was 5 patients.

Q: And the “on-treatment drug-related TEAEs, number of events” value ([5]; Part 2, crossover, 600 mg)?
A: The value was 3.

Q: What about the serious adverse events ([5]; phase 2 trial) of the same molecule?
A: Its serious adverse events is “no serious adverse events”.

Q: And the “withdrawals due to adverse events” value ([5]; phase 2 trial)?
A: Its value is “no patients withdrew due to adverse events”.

Q: And the “discontinuations because of an AE” value [6]?
A: The value was “no subjects were discontinued because of an AE”.

Q: What about the “effects on the studied ECG parameters” value [6] of the same molecule?
A: Its value is “No clinically relevant effects”.

Q: What about the serious adverse events [6] of the same molecule?
A: The serious adverse events was “No serious adverse events”.

Q: What about the “severity of all reported adverse events” value [6] of the same molecule?
A: The value was “mild”.

Q: Which IC50 (Human plasma kallikrein) does the source give for “C1-INH: C1 inhibitor (C1-INH, Sigma Cat #E0518), used as a therapeutic benchmark for HAE [Compound C1-INH]” here?
A: The IC50 was 50 nM.

Q: What about the Kon (purified PKa) of the same molecule?
A: Its Kon is 40000 M⁻¹ s⁻¹.

Q: And the IC50 [7]?
A: The IC50 was 1700 nM.

Q: And the “inhibition of enzyme activity on addition after activation of plasma” value [8]?
A: Its value is “slower action”.

Q: For Ecallantide, which anaphylactic reactions [9] is on record?
A: Its anaphylactic reactions is “risks of anaphylactic reactions have been reported”.
